Measured values as given in ChEMBL document CHEMBL1255340, “In vitro activities of the Rx-01 oxazolidinones against hospital and community pathogens” (2008).
In brackets after ≈: the same amount, converted by molar mass. Several values for one entry are separate records, joined by “and”; a condition that tells them apart may be missing. Equal entries are not always repeated.

Key:
Type in all cases: functional
Metamycoplasma hominis = assay: Antimicrobial activity against Mycoplasma hominis isolated from human respiratory tract by broth microdilution method
Chlamydia trachomatis = assay: Antimicrobial activity against Chlamydia trachomatis isolated from human respiratory tract by broth microdilution method
Chlamydia pneumoniae = assay: Antimicrobial activity against Chlamydophila pneumoniae isolated from human respiratory tract by broth microdilution method

CC[C@H]1OC(=O)[C@H](C)[C@@H](O[C@H]2C[C@@](C)(OC)[C@@H](O)[C@H](C)O2)[C@H](C)[C@@H](O[C@@H]2O[C@H](C)C[C@H](N(C)C)[C@H]2O)[C@](C)(O)C[C@@H](C)C(=O)[C@H](C)[C@@H](O)[C@]1(C)O [ERYTHROMYCIN]
MIC (Metamycoplasma hominis): 16 µg/mL and 32 µg/mL | MIC (Chlamydia trachomatis): 0.12 µg/mL and 0.25 µg/mL | MIC (Chlamydia pneumoniae): 0.5 µg/mL (≈ 0.681 µM)
